Here are results for 9 compounds from patent US20140364428A1, “5-(3-AMINOPHENYL)-5-ALKYL-5,6-DIHYDRO-2H-[1,4]OXAZIN-3-AMINE DERIVATIVES” (Janssen Pharmaceutica NV, priority 2011, published 2014).

Series [1] has as its system Abeta 1-42 produced and secreted into the medium of human neuroblastoma SKNBE2 cells. Put plainly: Cellular αLisa assay in SKNBE2 cells, Abeta 1-42. Type of series: cell-based. The settings on record: SKNBE2 cells expressing wild type hAPP695, incubated for 18 hours, read-out: Cellular αLisa assay in SKNBE2 cells Abeta 42 pIC50 (converted). As for the experimental part: (§1) In two αLisa assays the levels of Abeta total and Abeta 1-42 produced and secreted into the medium of human neuroblastoma SKNBE2 cells are quantified. The assay is based on the human neuroblastoma SKNBE2 expressing the wild type Amyloid Precursor Protein (hAPP695). The compounds are diluted and added to these cells, incubated for 18 hours and then measurements of Abeta 1-42 and Abeta total are taken. Abeta total and Abeta 1-42 are measured by sandwich αLisa. αLisa is a sandwich assay using biotinylated antibody AbN/25 attached to streptavidin coated beads and antibody Ab4G8 or cAb42/26 conjugated acceptor beads for the detection of Abeta total and Abeta 1-42 respectively. In the presence of Abeta total or Abeta 1-42, the beads come into close proximity. The excitation of the donor beads provokes the release of singlet oxygen molecules that trigger a cascade of energy transfer in the acceptor beads, resulting in light emission. Light emission is measured after 1 hour incubation (excitation at […] and emission at 615 nm).
(§2) A best-fit curve is fitted by a minimum sum of squares method to the plot of % Controlmin versus compound concentration. From this an IC50 value (inhibitory concentration causing 50% inhibition of activity) can be obtained.

The target in the next series is T1, BACE1 (Homo sapiens, UniProt P56817).
T1 construct: recombinant BACE1 protein in a final concentration of 1 mg/ml
T1 sequence (P56817 46-501): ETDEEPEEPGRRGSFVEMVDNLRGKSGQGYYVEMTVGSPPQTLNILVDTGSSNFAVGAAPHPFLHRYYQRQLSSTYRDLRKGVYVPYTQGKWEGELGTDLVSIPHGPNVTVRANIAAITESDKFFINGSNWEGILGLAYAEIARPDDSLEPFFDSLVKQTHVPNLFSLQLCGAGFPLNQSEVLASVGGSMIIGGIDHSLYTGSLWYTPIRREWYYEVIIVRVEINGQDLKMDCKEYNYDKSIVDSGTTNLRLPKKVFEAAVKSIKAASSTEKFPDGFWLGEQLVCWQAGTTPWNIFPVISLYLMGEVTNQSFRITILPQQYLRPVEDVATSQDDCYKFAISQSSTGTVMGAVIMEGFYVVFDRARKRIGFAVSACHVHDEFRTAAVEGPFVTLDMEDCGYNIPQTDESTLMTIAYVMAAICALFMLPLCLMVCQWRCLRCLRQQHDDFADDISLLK
Nature of the series: Biochemical FRET based assay. To be noted: recombinant BACE1 protein, APP derived 13 amino acids peptide substrate ('Swedish' mutation), 120 minutes at room temperature, pH 5.0; read-out: Biochemical FRET based assay pIC50 (converted).
Excerpt: This assay is a Fluorescence Resonance Energy Transfer Assay (FRET) based assay. The substrate for this assay is an APP derived 13 amino acids peptide that contains the ‘Swedish’ Lys-Met/Asn-Leu mutation of the amyloid precursor protein (APP) beta-secretase cleavage site. This substrate also contains two fluorophores: (7-methoxycoumarin-4-yl) acetic acid (Mca) is a fluorescent donor with excitation wavelength at 320 nm and emission at 405 nm and 2,4-Dinitrophenyl (Dnp) is a proprietary quencher acceptor. […] Upon cleavage by BACE1, the fluorophore Mca is separated from the quenching group Dnp, restoring the full fluorescence yield of the donor. The increase in fluorescence is linearly related to the rate of proteolysis.
Briefly in a 384-well format recombinant BACE1 protein in a final concentration of 1 mg/ml is incubated for 120 minutes at room temperature with […] in incubation buffer (40 mM Citrate buffer pH 5.0, 0.04% PEG, 4% DMSO) in the absence or presence of compound. Next the amount of proteolysis is directly measured by fluorescence measurement at T=0 and T=120 (excitation at 320 nm and emission at 405 nm). Results are expressed in RFU (Relative Fluorescence Units), as difference between T120 and TO.
as §2

The test system of series [2] is Abeta total produced and secreted into the medium of human neuroblastoma SKNBE2 cells. Put plainly: Cellular αLisa assay in SKNBE2 cells, Abeta total. To be noted: SKNBE2 cells expressing wild type hAPP695, incubated for 18 hours, read-out: Cellular αLisa assay in SKNBE2 cells Abetatotal pIC50 (converted). The class given is cell-based. Here is the method:
as §1, §2

In general, melting point refers to the temperature of the solid-liquid transition.

On to `COc1cccnc1Nc1ccc(F)c([C@@]2(C)N=C(N)CO[C@@H]2F)c1` [Compound 2, (5R,6R)-6-fluoro-5-{2-fluoro-5-[(3-methoxypyridin-2-yl)amino]phenyl}-5-methyl-5,6-dihydro-2H-1,4-oxazin-3-amine], for which the IC50 in series [1] is 24 nM; at BACE1 it was 162 nM; in series [2], 19.5 nM.

With `C[C@]1(c2cc(Nc3ncccn3)ccc2F)N=C(N)CO[C@H]1C(F)(F)F` [Compound 7, (5R,6R)-5-[2-fluoro-5-(pyrimidin-2-ylamino)phenyl]-5-methyl-6-(trifluoromethyl)-5,6-dihydro-2H-1,4-oxazin-3-amine], the IC50 in series [1] is 759 nM; at BACE1, 3720 nM; in series [2], 832 nM.

As for `COc1cccnc1Nc1ccc(F)c([C@@]2(C)N=C(N)COC2=C(F)F)c1` [Compound 3, (5R)-6-(difluoromethylidene)-5-{2-fluoro-5-[(3-methoxyPyridin-2-yl)amino]phenyl}-5-methyl-5,6-dihydro-2H-1,4-oxazin-3-amine], the results for the IC50 (in series [1]; at BACE1; in series [2]) were 105 nM, 759 nM and 89.1 nM, respectively.

As for `CC1(c2cc(Nc3ncccc3C#N)ccc2F)N=C(N)COC1F` (stereo not shown) [Compound 9], the values for the IC50 (in series [1]; on BACE1; in series [2]) were 129 nM, 224 nM and 87.1 nM, respectively.

The compound `COc1cccnc1Nc1ccc(F)c([C@@]2(C)N=C(N)COC2C(F)F)c1` (single isomer, unassigned) [Compound 4, (5R,6R*)-6-(Difluoromethyl)-5-{2-fluoro-5-[(3-methoxypyridin-2-yl)amino]phenyl}-5-methyl-5,6-dihydro-2H-1,4-oxazin-3-amine] had a melting point of 136.93 °C. Also, in series [1], the IC50 is 9.12 nM. Moreover, the IC50 on BACE1 was 58.9 nM. Besides, the IC50 in series [2] is 10.5 nM.

On to `COc1nccnc1Nc1ccc(F)c([C@@]2(C)N=C(N)CO[C@@H]2F)c1` [Compound 8, (5R,6R)-6-fluoro-5-{2-fluoro-5-[(3-methoxypyrazin-2-yl)amino]phenyl}-5-methyl-5,6-dihydro-2H-1,4-oxazin-3-amine], for which the IC50 in series [1] is 129 nM; on BACE1, 309 nM; in series [2], 138 nM.

Regarding `C[C@]1(c2cc(Nc3ncccn3)ccc2F)N=C(N)CO[C@@H]1F` [Compound 5, (5R,6R)-6-fluoro-5-[2-fluoro-5-(pyrimidin-2-ylamino)phenyl]-5-methyl-5,6-dihydro-2H-1,4-oxazin-3-amine], the IC50 in series [1] is 1260 nM; at BACE1, 1950 nM; in series [2], 1100 nM.

With `COc1cccnc1Nc1ccc(F)c([C@@]2(C)N=C(N)CO[C@H]2C(F)(F)F)c1` [Compound 6, (5R,6R)-5-{2-fluoro-5-[(3-methoxypyridin-2-yl)amino]phenyl}-5-methyl-6-(trifluoromethyl)-5,6-dihydro-2H-1,4-oxazin-3-amine], the IC50 in series [1] was 21.4 nM; at BACE1 it was 138 nM; in series [2], 20.9 nM.

Take `COc1cccnc1Nc1cccc([C@@]2(C3CC3)N=C(N)CO[C@@]2(F)C(F)(F)F)c1` [Compound 1, (5R,6S)-5-cyclopropyl-6-fluoro-5-{3-[(3-methoxypyridin-2-yl)amino]phenyl}-6-(trifluoromethyl)-5,6-dihydro-2H-1,4-oxazin-3-amine]: the IC50 in series [1] is 60.3 nM; on BACE1, 26.3 nM; in series [2], 53.7 nM.
